Results from patent US8865659B2, “Compositions for prevention or treatment of Hepatitis C virus containing ginsenoside Rg3 as an active ingredient” (priority 2012, dated 2014).

Key:
Assay type in all cases: cell-based
[1] = test system: thioredoxin; experiment: Western blotting against thioredoxin in JFH-1 infected Huh 7.5.1 cells; settings: 100 μM, 72 hours
Method: To examine the ginsenoside Rg3 effect onto anti-oxidant enzymes, western blotting analysis against thioredoxin, an anti-oxidant enzyme induced by Hepatitis C, was carried out. the analysis was conducted 72 hours after the samples of Huh 7.5.1 cells treated with each 100 μM of seven ginsenosides (Ro, Re, Rg1, Rg2, Rg3, Rh1, Rh2) as described above in the Example 3.
Specifically, western blotting analysis was carried out as follow. First, the above described samples were prepared, mixed with a sample buffer in tubes, and heated at 100° C. for 10 minutes. The tubes were cooled on ice and centrifuged. The electrophoresis was carried out with the prepared samples and molecular weight markers were put in. And then, they were transferred to a PVDF membrane (hydrophobic). After blocking with 5% skin milk for an hour, primary antibodies of thioredoxin was added. After staying overnight at 4° C., washing three times for every 10 minutes, blocking with 5% skin milk for an hour at the room temperature was carried out. After that, each secondary antibody was added and waited one hour for its reaction and washing three times for every 10 minutes were carried out. Then, the membrane was stained by 1:1 mixture of detection reagents A (Luminol Enhancer solution) and B (Peroxide solution) and developed with X ray film.

[2] = test system: JFH-1 virus infected Huh 7.5.1 cell; experiment: MTT assay, cytotoxicity of ginsenosides on liver cancer cell line; settings: 10, 25, 50 and 100 μL concentration (so in the source), 72 hours
Method: MTT assay was conducted to identify cytotoxicity of ginsenosides.
Specifically, the cells (Huh7.5.1) were seeded at the rate of 1×10^4 cells (in 100 μL)/well in 96 well plates, and incubated in 5% CO2 incubator for less than 24 hours. And after the samples were washed with 1×PBS once and treated with the rate of 50 ul JFH-1 virus/well, and replaced in the 5%, CO2 incubator for six hours. After taking out the cell samples from the incubator, the samples were washed with 1×PBS once and replaced in the culturing media comprising 10, 25, 50 and 100 μL concentration of the above stated seven (7) ginsenosides in Example 3, respectively. After the cells were incubated in 5% CO2 incubator for 72 hours, 20 μl of assay reagent, EZ Cytox, was seeded into each well with the care of no bubble producing. And then, the treated cells were incubated in 5% CO2 incubator for 2.5 hours, followed by examining absorbance at 420 nm with Microplate Reader (Molecular Devices, Minn.). DMSO was the solvent used when treating with ginsenoside, and both the control group and the cells infected with JFH-1 group were also treated with the solvent DMSO.

[3] = test system: Hepatitis C virus (JFH-1); experiment: Real-time PCR against JFH-1 mRNA in Huh 7.5.1 cells; settings: 100 μM, 72 hours
Method: The experiment was carried out as follow. First, 200,000 Huh 7.5.1 cells were placed in a 60×15 mm cell culture dish. Next day, Japanese Fulminant Hepatitis-1 virus (JFH-1) stock vial which was stored in −70° C. refrigerator was taken out and thawed out in a container filled with ice-water. The culture medium was collected from the cultured 60×15 mm cell culture dish, washed with 1×PBS and collected, again. 1.5 ml of JFH-1 virus solution per 60×15 mm cell culture dish each was added. The dish was shaken to cover the surface sufficiently. The dish was laid in a 5% CO2 incubator at 37° C. for 6 hours and after that, the supernatant was draw out. 1×PBS was spread on the cell surface as slow as possible and after one time washing, cells were collected. 5 ml of cell culture media was added to control and JFH-1 treatments groups. […] After that, the cell culture media was laid in a 5% CO2 incubator at 37° C. After 72 hours, the following steps were carried out.
As described in the above Example 3, the Huh 7.5.1 cells were treated with each 100 μM of seven ginsenosides (Ro, Re, Rg1, Rg2, Rg3, Rh1, Rh2). After 72 hours, a real-time PCR against JFH-1 mRNA was carried out. […]
Specific real-time PCR carried out was as follow. […] After that, total RNA was extracted from the cells treated by the above described method by using Rneasy mini kit (QIAGEN) and quantified by using Nanodrop 1000 (Thermo Scientific). […]

SMILES: CC(C)=CCC[C@](C)(O)[C@H]1CC[C@]2(C)[C@@H]1[C@H](O)C[C@@H]1[C@@]3(C)CC[C@H](O[C@@H]4O[C@H](CO)[C@@H](O)[C@H](O)[C@H]4O[C@@H]4O[C@H](CO)[C@@H](O)[C@H](O)[C@H]4O)C(C)(C)[C@@H]3CC[C@]12C [ginsenoside Rg3]
- thioredoxin [1]: decreased
- cytotoxicity (MTT assay) [2]: no cytotoxicity
- JFH-1 mRNA [3]: remarkably decreased
